Data published in patent publication US20130085106A1, “METHODS AND FORMULATIONS FOR OXYTOCIN TREATMENT OF SUBSTANCE USE, PSYCHIATRIC AND OTHER DISORDERS” (THE UNIVERSITY OF NORTH CAROLINA AT CHAPEL HILL, priority 2010, published 2013).
Ends that are not written are not given here.

Legend:
[1] = tested on: alcohol dependent patients; experiment: Double-blind, placebo controlled trial of twice daily intranasal oxytocin for alcohol withdrawal (Example 2); format: in vivo, human
Description: This is a double-blind, placebo controlled comparison of the efficacy of twice daily intranasal administration of oxytocin and placebo (saline) in reducing alcohol withdrawal symptoms, the number of bouts of withdrawal during which symptoms are of sufficient magnitude requiring lorazepam treatment (see definitions below) and the amount of lorazepam required to resolve withdrawal bouts. Treatment group assignment are random within each sex. Subjects are patients admitted to UNC Hospitals or the UNC CTRC for medical detoxification. Each treatment group is composed of up to 40 subjects. The study statistician constructs a randomization plan to randomize 80 subjects to 2 groups of 40 subjects each with a blocksize of 4. This is a permuted blocksize as this is a blind study.
Informed consent is obtained the morning after admission to the UNC Hospitals medical units or before the outpatient screening evaluation before admission to the UNC CTRC. After consent is obtained, subjects are randomly assigned to a treatment group (oxytocin or placebo). Prior to receiving their first intranasal treatment, an ECG is obtained and blood drawn to obtain serum for assay of cytokine and allopregnanolone concentrations. Subjects also rate their symptoms using the Alcohol Withdrawal Symptom Checklist (AWSC, Pittman et al., Alcohol Clin. Exp. Res. 31: 612-618 (2007)) prior to receiving their first test dose. These procedures are done/overseen by research nurses or physicians. Subjects usually receive their first intranasal test dose between 1000 and 1200 hours, which consists of 6 insufflations of SYNTOCINON® Spray (approximately 24 IU) or placebo, with each insufflation given 30 seconds apart and alternating between nostrils. Test doses taken again at 1700 hr later that day (Admission Day 1) and at 0900 and 1700 hr on Admission Days 2 and 3. Oxytocin test treatments are administered from 5 ml intranasal spray vials designed to deliver 0.1 ml metered volume per insufflation. The placebo treatments are administered from 60 ml intranasal spray vials (each containing 30 ml of solution) also designed to deliver 0.1 ml metered volume per insufflation. Vials containing oxytocin and placebo spray are blind labeled by the UNC Investigational Drug Service. Research nurses or physicians oversee subject self-administration of all intranasal test doses. After enrollment on Admission day 1 and in the morning on Admission days 2 and 3, subjects are given multiple copies of the AWSC questionnaire and requested to complete one each time the unit nurses do CIWA ratings. These questionnaires are retrieved by research staff the following morning. Shortly after the morning test dose on Admission days 2 and 3, subjects complete the Alcohol Craving Visual Analog Scales (ACVAS), the Penn Alcohol Craving Scale (PACS), and the Profile of Mood States (McNair et al., (1971) EDITS manual for the profile of mood states. San Diego, Calif. Educational and Industrial Testing Service). In addition, a consumption diary is administered and given to the subject to quantify the amount of alcohol participants have been consuming prior to admission in the study. On Days 2 and 3, research nurses also draw (and subsequently process) blood serum samples to assay cytokine and allopregnanolone concentrations shortly after the morning test dose. Additional blood is drawn after the morning test dose on admission day 2 to obtain serum for tests to be run (magnesium, Cl, Ca, Na, K, BUN, creatinine, and GGT). Another ECG is also obtained shortly after the morning test treatment on Admission day 2. Research staff retrieves on a daily basis CIWA ratings and vital sign measurements obtained on each subject from their electronic medical record.
In all subjects, lorazepam doses are administered PO or IV (if subjects cannot take medication PO) whenever CIWA ratings are ≧12. CIWA ratings are obtained 1 hr after the initial dose of lorazepam and another dose administered if CIWA ratings ≧10. […]

[2] = tested on: subjects with schizophrenia; experiment: Expanded two-week intranasal oxytocin study in schizophrenia, 25 subjects (Example 8); format: in vivo, human; conditions: for Brüne 2nd false belief, M / Brüne 3nd false belief, M / Brüne deception, M / PANSS general score, M / PANSS negative score, M / PANSS positive score, M / PANSS social items mean (suspiciousness, hostility, social withdrawal passive/active, uncooperativeness), M / PANSS total score, M / Paranoia Scale, M / Trustworthiness task (ratings of untrustworthy faces), M: N = 14
Description: (§1) This was a randomized, double blind, placebo-controlled 2-week treatment trial. Screening of each subject included a review of psychiatric and medical history, physical examination, an ECG, and blood and urine collection for standard laboratory tests. Within 1 week after screening, baseline social cognition measures were obtained followed by psychiatric ratings. Daily intranasal treatments were initiated after baseline assessments. Social cognition measures and psychiatric ratings were repeated beginning 50 minutes after the AM dose of study medication on treatment day 14. The social cognition instruments were the Brüne Theory of Mind Picture Stories Task (Brüne, (2003) Social cognition and behaviour in schizophrenia. In Brüne, Ribbert, Schiefenhövel (eds.) The social brain-evolution and pathology. John Wiley & Sons; Chichester, pp. 277-313) and the Trustworthiness Task (Adolphs et al., Nature 393: 470-474 (1998)). Psychiatric measures included the Positive and Negative Symptom Scale (PANSS) (Kay et al., Schizophr. Bull. 13: 261-276 (1987))) and the Paranoia Scale (Fenigstein & Vanable, J. Pers. Soc. Psych. 62: 129-138 (1992))). The first 10 subjects were studied as inpatients on a clinical research unit and the last 10 subjects were studied in an outpatient research clinic. Blood and urine laboratory tests, ECGs and body weights were obtained at screening and treatment day 14 in all subjects and also on treatment days 3 and 7 in inpatients.
(§2) Subjects remained on their pre-study medication regimen and doses throughout the treatment trial. They self-administered intranasal study drug twice daily; before breakfast and before dinner. Each dose consisted of six 0.1 ml insufflations (alternating between the left and right nostril) of oxytocin spray containing approximately 24 international units of oxytocin (SYNTOCINON® Spray, Novartis) or placebo. Outpatient compliance with test treatments was monitored by weighing spray vials before they were dispensed and after the morning dose on treatment day 14.
We have expanded our double blind, placebo-controlled pilot study described in Example 7 to include 25 subjects with schizophrenia in which we compared the effects of 14 days of twice daily intranasal oxytocin (24 IU/dose, N=14) vs. placebo (N=11) administration on PANSS (Positive and Negative Symptom Scale) total and PANSS item scores, subject self-ratings on the Paranoia Scale and performance on social cognition tests (the Brüne Theory of Mind Picture Stories Task and the Trustworthiness Task). As in the smaller study, all subjects' symptoms and psychotropic medication regimens were stable for ≧1 month prior to the treatment trial. Medication doses remained the same during the study period.
Because of our interest in oxytocin effects on social function in schizophrenia, we focused our statistical analysis on an a priori subset of PANSS items: P6 (suspiciousness/persecution [paranoia]), P7 (hostility), N4 (passive/apathetic social withdrawal), G8 (uncooperativeness) and G16 (active social avoidance). These items were used as inclusion criteria for this study (see description in Example 7). Values on these items are highly correlated in our sample (Cronbach's alpha=0.84).

[3] = tested on: patients with paranoid or undifferentiated schizophrenia; experiment: Randomized, double blind, placebo-controlled 2-week intranasal oxytocin trial in schizophrenia (Example 7); format: in vivo, human
Description: Twenty-three subjects were initially enrolled; 2 dropped out before randomization to treatment and 1 dropped out early because they developed an upper respiratory infection; the remaining 20 completed the protocol and constitute our study sample. Inclusion criteria were: 18-55 years of age, DSM-IV diagnosis of paranoid or undifferentiated schizophrenia ≧1 year, PANSS total score ≧60, PANSS suspiciousness/persecutory item score ≧4 or 3 on this item and ≧3 on at least one other social behavior-relevant PANSS item (hostility, passive/apathetic social withdrawal, uncooperativeness, active social withdrawal), treatment with one or more standard antipsychotic medications, stability of medication doses and symptoms ≧1 month.
as §1, §2
All dependent variables were examined for normality and skewness prior to analyses. We compared oxytocin and placebo group means using an unpaired t test for the following baseline variables: demographic, psychiatric history and diagnosis, inpatient versus outpatient status, social cognition and psychiatric measures. We performed a paired t test within each treatment group examining changes from baseline to two weeks on the following variables: biological (laboratory test values, vital signs), social cognition measures (Brüne Task, Trustworthiness Task), and psychiatric measures (PANSS total and subscales, Paranoia Scale). To compare the treatment groups over time on social cognition and psychiatric variables, we used analysis of covariance controlling for the baseline measure of the dependent variable.

[4] = Burbach et al., Eur. J. Pharmacol. 94: 125-131 (1983); cited from earlier work
[5] = ANCOVA controlling for baseline, 14-day treatment

CC[C@H](C)[C@@H]1NC(=O)[C@H](Cc2ccc(O)cc2)NC(=O)[C@@H](N)CSSC[C@@H](C(=O)N2CCC[C@H]2C(=O)N[C@@H](CC(C)C)C(=O)NCC(N)=O)NC(=O)[C@H](CC(N)=O)NC(=O)[C@H](CCC(N)=O)NC1=O [Oxytocin, oxytocin]
adverse events ([1]; 3 days of protocol, all 10 subjects): no unexpected adverse events
Total lorazepam (mg) required to control withdrawal symptoms, Mean ([1]; 3 days of protocol, intranasal approx. 24 IU twice daily, N=6): 2.33 mg
Mean CIWA Day 1 ([1]; Day 1, intranasal approx. 24 IU twice daily, N=6): 2.40
Mean AWSC Day 1 ([1]; Day 1, self-rating, N=6): 6.17
Mean ACVAS Day 2 ([1]; Day 2, 100 mm Alcohol Craving Visual Analog Scale, N=6): 33.83
Mean CIWA Day 2 ([1]; Day 2, N=6): 0.81
Mean PACS Day 2 ([1]; Day 2, Penn Alcohol Craving Scale, N=6): 13.33
Mean AWSC Day 2 ([1]; Day 2, self-rating, N=6): 5.40
Mean ACVAS Day 3 ([1]; Day 3, 100 mm Alcohol Craving Visual Analog Scale, N=6): 11.23
Mean CIWA Day 3 ([1]; Day 3, N=6): 1.52
Mean PACS Day 3 ([1]; Day 3, Penn Alcohol Craving Scale, N=6): 9.33
Mean AWSC Day 3 ([1]; Day 3, self-rating, N=6): 3.78
subjects that required no lorazepam treatment at all ([1]; oxytocin treatment group, 3-day detoxification): 4 of the 6
declines in PANSS positive symptom subscale scores compared to the Placebo group ([2]; ANOVA, F=3.10, p=0.0923): trends toward significantly greater declines
declines in PANSS social items mean scores compared to the Placebo group ([2]; ANOVA, F=3.15, p=0.0898): trends toward significantly greater declines
decline in PANSS total score compared to the Placebo group ([2]; ANOVA, F=4.29, p=0.05): significantly greater decline
Brüne 2nd false belief, M ([2]; Baseline): 1.93
Brüne 3nd false belief, M ([2]; Baseline): 1.93
Brüne deception, M ([2]; Baseline): 2.43
PANSS general score, M ([2]; Baseline): 38.21
PANSS negative score, M ([2]; Baseline): 20.36
PANSS positive score, M ([2]; Baseline): 19.79
PANSS social items mean (suspiciousness, hostility, social withdrawal passive/active, uncooperativeness), M ([2]; Baseline): 2.91
PANSS total score, M ([2]; Baseline): 79.00
Paranoia Scale, M ([2]; Baseline): 48.00
Trustworthiness task (ratings of untrustworthy faces), M ([2]; Baseline): −15.71
PANSS total score, M ([2]; Tx Day 14, 24 IU/dose intranasal twice daily): 69.21
Brüne 2nd false belief, M ([2]; Tx Day 14): 2.29
Brüne 3nd false belief, M ([2]; Tx Day 14): 2.43
Brüne deception, M ([2]; Tx Day 14): 2.86
PANSS general score, M ([2]; Tx Day 14): 34.07
PANSS negative score, M ([2]; Tx Day 14): 18.00
PANSS positive score, M ([2]; Tx Day 14): 17.14
PANSS social items mean (suspiciousness, hostility, social withdrawal passive/active, uncooperativeness), M ([2]; Tx Day 14): 2.39
Paranoia Scale, M ([2]; Tx Day 14): 45.00
Trustworthiness task (ratings of untrustworthy faces), M ([2]; Tx Day 14): −10.36
PANSS general subscale scores, LS mean [3, 5]: 34.34
PANSS total scores, Least squared (LS) mean [3, 5]: 70.56
group differences in change over the treatment period for other PANSS or social cognition variables ([3]; ANCOVA, oxytocin vs placebo): no group differences
decline in PANSS general subscale scores compared to placebo ([3]; ANCOVA, F=3.78, p=0.069): trend toward a significantly greater decline
decline in PANSS total scores compared to the placebo group ([3]; ANCOVA, F=4.60, p=0.047): significantly greater decline
change in other Brüne Task measures (second order belief, third order false belief, recognition of cheating) ([3]; baseline to treatment day 14): no changes that approached significance

oxytocin fragment 4-9: biologically active fragment of oxytocin, reported to be more potent than the full-length molecule (QNCPLG; ends and bridges not checked; UniProt P01178 23-28, looked up, fragment)
potency relative to the full-length molecule [4]: more potent than the full-length molecule
